The text below walks through data of patent US20240376119A1, “SPIRO COMPOUND AND USE THEREOF” (CSPC Zhongqi Pharmaceutical Technology (Shijiazhuang) Co., …, priority 2021, published 2024).

One data set deals with hERG channel (Homo sapiens (Human), UniProt Q12809). The experiment in a line: hERG assay, manual whole-cell patch clamp in CHO-K1 cell line stably expressing the hERG channel. In kind it is cell-based. As to the method:
This assay included the following aspects: • A manual patch clamp technique was used to record the hERG current in the CHO-K1 cell line stably expressing the hERG channel; • The inhibition rate at each concentration was calculated based on the hERG tail current; • Each compound was tested at 5 concentrations to calculate the IC50 value; • Three cells were tested for each concentration; • One positive control drug was set.
HERG currents were recorded using the whole-cell patch-clamp technique. The cell suspension was added to the cell tank and placed on the upright microscope stage. After the cell adherence, the cells were perfused with extracellular fluid at a flow rate of 1-2 mL/min. The glass microelectrode was drawn in two steps by a micropipette puller, and its resistance value in water was 2-5 MΩ. After establishing the whole-cell recording, the clamp potential was maintained at −80 mV. The hERG tail current was elicited by applying a depolarizing voltage to +60 mV upon the voltage stimulation and then repolarizing to −50 mV. All recordings were made after the current stabilization. Extracellular perfusion administration started from a low concentration, and each concentration lasted for 5-10 minutes until the current was stable, and then proceeded to the next concentration.
The half inhibitory concentration (ICSO) of the test compound was derived from the best fit of the Logistic equation.

In data set [1] the test system is human acute myeloid leukemia MV-4-11 cells. The experiment in a line: In vitro inhibitory effect on the proliferation of MV-4-11 cells (MTT, 72 h). In kind it is cell-based. The following applies: MV4-11, 72 hours exposure. As for the experimental part: The human acute myeloid leukemia MV-4-11 cells used in the assay were purchased from Shanghai Institutes for Biological Sciences, Chinese Academy of Sciences. The complete culture medium required for cell culture was IMDM (GIBCO Company), which was supplemented with 10% fetal bovine serum (GIBCO Company). Cells were cultured in a 37° C., 5% CO2 incubator. The reagents used in the assay included dimethyl sulfoxide (purchased from Tianjin Kemiou Chemical Reagent Co., Ltd.), and MTT (Shanghai Topbiochem Co., Ltd., CAS. NO. 298-93-1). The test substance was sealed and stored at 4° C.
Dimethyl sulfoxide was used as the solvent to fully dissolve the test substance and prepare a stock solution with a concentration of 5×10^−2 mol/L. The stock solution was stored at −20° C. A complete culture medium was used as the diluent, and the test substance was diluted to different concentrations in a gradient for later use. 100 µL/well (2×10^4 cells/well) of a suspension of MV-4-11 cells in the complete culture medium was added to a 96-well culture plate. 100 μL/well of the corresponding test substances at different concentrations were added respectively. 8 concentrations were set for each test substance, and 3 duplicate wells were set for each concentration. The plate was cultured in a 37° C., 5% CO2 incubator. 20 μL/well of MTT was added after 72 hours of exposure to the test substances. The plate was cultured for 4 hours in a 37° C., 5% CO2 incubator. The supernatant was discarded, and 150 μL/well of dimethyl sulfoxide was added. The plate contents were oscillated and mixed evenly. The microplate reader was used to detect the OD value at a wavelength of 550 nm. The well only containing the cell suspension without test substance was a control well, and the well only containing the complete culture medium was a blank well. The inhibition rate of the cell growth was calculated with the following formula: • Inhibition rate=(ODcontrol well-ODtest well)/(ODcontrol well-ODblank well)*100%. According to the inhibition rates at each concentration, SPSS software was used to calculate the half inhibitory concentration IC50 value.

A further data set concerns the target SHP2 (Homo sapiens (Human), UniProt Q06124). The experiment in a line: Assay for the inhibitory effect on the SHP2 enzyme (DiFMUP substrate, fluorescence). In kind it is biochemical. The following applies: SHP2 activated with SHP-2 activated peptide; DiFMUP 10 μM; read-out: Enzymatic Effect (IC50 on SHP2). As for the experimental part: 1× Assay buffer was prepared. A compound to be tested was diluted with DMSO solvent to a stock concentration of 10 mM. The compound to be tested was first diluted to an intermediate concentration of 1000 μM and then further diluted in a 3-fold gradient using DMSO. Therefore, the intermediate gradient dilution concentration of the compound to be tested was: 1000 μM, 3-fold dilution, 11 gradients. 100 nL of each concentration of the compound in the 384-well LDV echo plate was transferred to a new 384-well ELISA plate (assay plate) (corning, Cat #4514) by the Echo550 instrument. The final concentration of the compound to be tested was 10 μM, 3-fold dilution, 11 gradients in duplicate after 10 μL of the reaction reagent was added. The final DMSO concentration was 1%. For both negative and positive control wells, 100 nL DMSO would be transferred.
A mixed liquor of 2× working SHP2 reagent (0.4 nM) and 0.5 μM SHP-2 activated peptide (BPS bioscience #79319-2) was prepared with 1× enzyme buffer. After the above-mixed liquor was incubated at 25° C. for 60 minutes, 5 μL of activated SHP2 kinase solution was transferred with a pipettor to the compound wells and the Max control wells (Corning, #4514) of the plate. Then 5 μL of 1× kinase buffer was transferred to the Min control wells. The plate was centrifuged at 1000 rpm for 30 seconds, sealed, and incubated in a 25° C. constant-temperature incubator for 30 minutes. A substrate solution of DiFMUP (#D6567, Invitrogen™) was prepared with 1× kinase buffer, and its concentration should be 2 times as the final concentration of the assay (DiFMUP final concentration: 10 μM). 5 μL of the prepared substrate solution was transferred with an electric pipettor into each well of the ELISA plate to start the reaction. The plate was centrifuged at 1000 rpm for 30 seconds, sealed, and incubated in a 25° C. constant-temperature incubator for 60 minutes. Read the plate at the excitation/emission wavelength of 358/455 nm after the ELISA plate was placed on the Spark machine.
The RLU values were collected from Spark and the inhibition rate was calculated with the RLU values. Inhibition rate=(maximum value-sample RLU)/(maximum value-minimum value)*100. “Minimum value” was referred to the RLU of the enzyme-free control, and “maximum value” was referred to the RLU of the DMSO control. The data were fit by using the XLFit Excel module (version 5.4.0.8) to obtain IC50 values, and the results are shown in Table 1.

Data set [2] in a line: Mouse pharmacokinetic assay (intragastric administration, plasma HPLC-MS/MS). In kind it is in vivo. The following applies: ICR mice. As to the method: ICR mice were intragastrically administered with the compound at 10 mg/kg or 20 mg/kg. At different time points (0.25 h, 0.5 h, 1 h, 2 h, 4 h, 8 h, 24 h) after administration, the mice blood was collected from the orbit. The collected whole blood was anticoagulated with heparin sodium and centrifuged at 3000 g to obtain mouse plasma samples. Methanol was added to precipitate proteins. The drug concentration in the mouse plasma after administration was determined by the HPLC-MS/MS method. A drug concentration-time curve was plotted and the pharmacokinetic parameters were calculated. The pharmacokinetic behavior in mice after the compound administration was described by means of non-compartment model statistical moment parameters.

Where [3] appears, read: mouse, po, intragastric, 10 mg/kg, plasma.

hERG channel, sequence (Q12809 whole entry): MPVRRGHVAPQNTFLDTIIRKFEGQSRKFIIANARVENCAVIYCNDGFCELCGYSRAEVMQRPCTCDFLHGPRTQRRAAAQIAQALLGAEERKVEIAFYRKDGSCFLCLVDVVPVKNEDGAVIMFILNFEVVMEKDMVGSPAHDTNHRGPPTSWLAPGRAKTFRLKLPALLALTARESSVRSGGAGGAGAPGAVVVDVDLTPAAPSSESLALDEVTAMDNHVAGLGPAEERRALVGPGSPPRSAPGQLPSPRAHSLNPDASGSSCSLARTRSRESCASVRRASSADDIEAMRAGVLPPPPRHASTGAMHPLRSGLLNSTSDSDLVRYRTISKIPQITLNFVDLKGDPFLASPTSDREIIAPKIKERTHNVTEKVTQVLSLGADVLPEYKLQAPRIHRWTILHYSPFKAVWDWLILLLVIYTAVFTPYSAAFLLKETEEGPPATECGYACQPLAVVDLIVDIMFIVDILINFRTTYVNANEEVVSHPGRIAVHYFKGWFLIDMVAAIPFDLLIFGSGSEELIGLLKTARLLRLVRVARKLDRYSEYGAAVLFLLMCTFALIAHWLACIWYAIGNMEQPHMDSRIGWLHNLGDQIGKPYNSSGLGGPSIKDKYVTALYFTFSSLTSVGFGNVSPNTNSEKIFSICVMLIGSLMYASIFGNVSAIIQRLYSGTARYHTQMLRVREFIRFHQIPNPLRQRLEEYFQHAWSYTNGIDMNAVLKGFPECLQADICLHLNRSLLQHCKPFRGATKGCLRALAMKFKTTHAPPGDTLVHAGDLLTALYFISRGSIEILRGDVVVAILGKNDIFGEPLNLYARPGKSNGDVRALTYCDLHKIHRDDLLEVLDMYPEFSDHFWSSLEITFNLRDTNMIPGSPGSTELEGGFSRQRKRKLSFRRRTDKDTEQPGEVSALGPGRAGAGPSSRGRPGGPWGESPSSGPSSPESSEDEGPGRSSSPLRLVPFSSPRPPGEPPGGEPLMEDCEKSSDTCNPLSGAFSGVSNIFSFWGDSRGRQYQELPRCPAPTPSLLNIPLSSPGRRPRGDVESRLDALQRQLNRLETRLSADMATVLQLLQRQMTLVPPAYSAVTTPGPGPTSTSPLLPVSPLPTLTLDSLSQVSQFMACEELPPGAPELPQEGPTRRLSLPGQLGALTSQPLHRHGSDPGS
SHP2, sequence (Q06124 whole entry): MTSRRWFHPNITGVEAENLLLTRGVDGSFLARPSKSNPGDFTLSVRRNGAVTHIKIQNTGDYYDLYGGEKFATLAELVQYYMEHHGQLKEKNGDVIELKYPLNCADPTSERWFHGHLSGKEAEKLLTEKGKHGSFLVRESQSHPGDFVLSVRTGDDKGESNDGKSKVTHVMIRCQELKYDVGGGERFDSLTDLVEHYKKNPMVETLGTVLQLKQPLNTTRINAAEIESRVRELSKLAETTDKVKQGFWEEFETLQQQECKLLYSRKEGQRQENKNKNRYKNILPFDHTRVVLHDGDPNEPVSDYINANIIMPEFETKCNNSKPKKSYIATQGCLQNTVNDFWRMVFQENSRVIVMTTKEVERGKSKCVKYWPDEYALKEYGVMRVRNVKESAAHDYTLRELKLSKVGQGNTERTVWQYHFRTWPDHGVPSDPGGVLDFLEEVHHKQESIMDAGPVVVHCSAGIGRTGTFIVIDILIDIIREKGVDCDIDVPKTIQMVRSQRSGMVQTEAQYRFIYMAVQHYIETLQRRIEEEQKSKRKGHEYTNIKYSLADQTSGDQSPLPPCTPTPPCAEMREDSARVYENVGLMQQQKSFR

As usually defined, the IC50 is the midpoint of a concentration-inhibition curve. The term Cmax denotes the peak of the concentration-time curve. Usually Tmax stands for the time at which the peak concentration occurs. Regarding `[2H][C@@]1(N)c2ccccc2OC12CCN(c1nc(N)c(Sc3ccnc(N)c3Cl)nc1C(C)=O)CC2` [Compound 56, (R)-1-(5-amino-6-((2-amino-3-chloropyridine-4-yl)sulfanyl)-3-(3-amino-3-deuterium-spiro[benzofuran-2,4′-piperidine]-1′-yl)pyrazine-2-yl)ethanone], the 50% inhibitory concentration (IC50) at hERG channel (CHO-K1 stable cell line, hERG tail current, 5 concentrations) is more than 10000 nM; in data set [1], not above 20 nM; at SHP2 it was not above 20 nM. Also, at hERG channel (within the detection concentration range of the assay), the “inhibitory effect on the hERG channel (in words)” value is “no obvious inhibitory effect on the hERG channel”. In addition, the “exposure and absorption in mice (in words)” value in data set [2] (intragastric administration) is “relatively high exposure in mice and both were well absorbed in vivo”. In data set [2] (setting [3]), this compound gave a Cmax of 3570 ng/mL. Moreover, the time of peak concentration (Tmax) in data set [2] (setting [3]) was 30 min. The AUC(0-t) in data set [2] (mouse, po, intragastric, 10 mg/kg, plasma, read-out: AUC0-24 h) was determined as 18300 ng·h/mL.
